{
  "source": "patent US7754440B2",
  "about": "(priority 2001, dated 2010)",
  "format_in_all_cases": "cell-based",
  "key": {"[1]": {"molecular_target": "T1, Nav1.3 sodium channel (Homo sapiens, UniProt Q9NY46)", "T1 sequence (Q9NY46 whole entry)": "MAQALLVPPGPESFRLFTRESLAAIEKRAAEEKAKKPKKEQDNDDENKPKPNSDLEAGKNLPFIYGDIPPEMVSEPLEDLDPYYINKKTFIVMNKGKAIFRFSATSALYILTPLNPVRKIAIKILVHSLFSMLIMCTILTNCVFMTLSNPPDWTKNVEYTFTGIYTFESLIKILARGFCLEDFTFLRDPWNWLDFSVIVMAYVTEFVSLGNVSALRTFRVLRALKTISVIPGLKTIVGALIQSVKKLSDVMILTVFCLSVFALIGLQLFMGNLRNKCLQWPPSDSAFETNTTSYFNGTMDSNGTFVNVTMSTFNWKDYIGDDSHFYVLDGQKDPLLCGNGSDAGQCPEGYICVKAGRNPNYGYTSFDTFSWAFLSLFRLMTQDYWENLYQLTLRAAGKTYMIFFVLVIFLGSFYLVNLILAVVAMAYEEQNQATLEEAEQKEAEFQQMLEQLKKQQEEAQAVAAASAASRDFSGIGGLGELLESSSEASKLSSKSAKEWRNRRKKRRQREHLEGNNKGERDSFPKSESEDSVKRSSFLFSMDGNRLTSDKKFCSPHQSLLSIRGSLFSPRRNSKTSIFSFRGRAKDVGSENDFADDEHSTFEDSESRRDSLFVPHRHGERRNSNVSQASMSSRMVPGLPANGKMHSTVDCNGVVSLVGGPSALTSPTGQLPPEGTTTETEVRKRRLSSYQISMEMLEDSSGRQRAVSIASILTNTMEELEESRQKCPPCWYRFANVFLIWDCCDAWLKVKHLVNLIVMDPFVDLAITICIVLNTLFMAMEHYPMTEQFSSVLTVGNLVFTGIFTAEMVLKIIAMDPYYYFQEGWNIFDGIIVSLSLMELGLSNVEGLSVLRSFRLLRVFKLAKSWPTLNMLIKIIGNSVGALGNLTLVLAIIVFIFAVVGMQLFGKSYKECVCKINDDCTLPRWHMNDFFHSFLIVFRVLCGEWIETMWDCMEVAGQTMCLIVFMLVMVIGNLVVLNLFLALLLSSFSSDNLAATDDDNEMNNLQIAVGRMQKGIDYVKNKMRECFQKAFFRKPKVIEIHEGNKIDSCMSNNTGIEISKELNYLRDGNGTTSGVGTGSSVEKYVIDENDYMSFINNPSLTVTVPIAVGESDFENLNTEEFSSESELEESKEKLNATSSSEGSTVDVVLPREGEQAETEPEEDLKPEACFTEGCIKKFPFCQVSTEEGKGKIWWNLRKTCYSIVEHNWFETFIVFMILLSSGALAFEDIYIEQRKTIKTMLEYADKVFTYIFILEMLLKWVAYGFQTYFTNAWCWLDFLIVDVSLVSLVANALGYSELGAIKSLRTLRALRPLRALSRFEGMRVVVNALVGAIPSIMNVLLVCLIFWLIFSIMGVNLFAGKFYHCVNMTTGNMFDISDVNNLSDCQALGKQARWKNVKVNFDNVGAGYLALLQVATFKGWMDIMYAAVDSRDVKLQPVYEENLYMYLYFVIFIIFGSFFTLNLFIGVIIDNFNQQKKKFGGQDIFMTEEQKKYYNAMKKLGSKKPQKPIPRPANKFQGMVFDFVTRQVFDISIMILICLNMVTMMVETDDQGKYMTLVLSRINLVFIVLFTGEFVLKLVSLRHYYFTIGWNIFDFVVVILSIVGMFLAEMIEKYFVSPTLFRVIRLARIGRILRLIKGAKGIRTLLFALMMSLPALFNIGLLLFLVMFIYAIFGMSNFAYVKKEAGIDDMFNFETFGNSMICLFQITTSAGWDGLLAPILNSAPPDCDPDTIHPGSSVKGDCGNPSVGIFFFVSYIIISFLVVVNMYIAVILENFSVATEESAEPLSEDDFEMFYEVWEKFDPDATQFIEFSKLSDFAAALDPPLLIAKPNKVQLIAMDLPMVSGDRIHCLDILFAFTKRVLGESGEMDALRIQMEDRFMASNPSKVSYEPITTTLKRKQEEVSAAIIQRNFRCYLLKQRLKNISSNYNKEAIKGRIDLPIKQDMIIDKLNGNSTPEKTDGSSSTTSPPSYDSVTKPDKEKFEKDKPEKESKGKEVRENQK", "test": "cell-based", "conditions": "for IC50: read-out: IC50 obtained using patch-clamp"}, "[2]": {"molecular_target": "T1, Nav1.3 sodium channel", "test": "Na+ depletion/repletion persistent current assay with single-wavelength membrane potential dye on FLIPR-Tetra"}, "[3]": {"molecular_target": "T1, Nav1.3 sodium channel", "test": "Persistent sodium current screening assay using FRET dyes on VIPR (Na+-dependent depolarization)", "conditions": "tetracaine 10 μM; HEK-Nav 1.3 cells; FIG. 10"}, "[4]": {"system": "HEK-Nav 1.3 cells", "test": "Counter-screen: K+-dependent depolarization (VIPR FRET)", "conditions": "tetracaine 10 μM; K+ final 80 mM; FIG. 10"}},
  "note": "“Also recorded” adds a separate entry of the source.",
  "data": [
    {"compound": "CCN(CC)CC(=O)Nc1c(C)cccc1C", "note": "[Lidocaine]", "values": [
      {"measurement": "IC50", "setting": "[1]; comparison values for the persistent current assay", "result": 90, "unit": "µM"},
      {"measurement": "IC50", "setting": "[2]", "result": 32, "unit": "µM"}
    ]},
    {"compound": "CCCCNc1ccc(C(=O)OCCN(C)C)cc1", "note": "[Tetracaine]", "values": [
      {"measurement": "Na+-dependent change in Rf/Ri (Na+-dependent depolarization)", "setting": "[3]", "result": "inhibited"},
      {"measurement": "K+-dependent change in Rf/Ri (K+-dependent depolarization)", "setting": "[4]", "result": "not"}
    ]},
    {"compound": "TTX", "values": [
      {"measurement": "Block of persistent current", "setting": "[1]", "result": "completely blocked"},
      {"measurement": "Block of transient current", "setting": "[1]", "result": "completely blocked"},
      {"measurement": "IC50", "setting": "[1]", "result": 0.005, "unit": "µM"},
      {"measurement": "Na+ channel dependent component of the fluorescence response", "setting": "[2]", "result": "blocked; also recorded: the initial response is lost"},
      {"measurement": "IC50", "setting": "[2]; read-out: IC50 persistent sodium current, FLIPR-Tetra assay", "result": 0.005, "unit": "µM"}
    ]}
  ]
}
